Entries after “also recorded” stand apart in the source; their conditions may differ.
How the values were obtained:
8-week DM WT mice = experiment: OKT responses of 8-week DM WT mice after selective dopamine receptor agonists; assay type: in vivo; details: DM WT mice after 8 weeks of diabetes, agonist injection vs vehicle
Description: After 8 weeks of diabetes, the animals were injected with vehicle, D1 receptor (D1R) agonist (SKF38393), and D4 receptor (D4R) agonist (PD168077).

[1] = Behavioral side effects (dyskinesia) under L-DOPA; assay type: in vivo; details: L-DOPA 10 mg/kg daily, CTRL or DM mice
Description: (§1) To examine whether DA deficiency causes visual deficits in early DR, the effects of restoring DA levels with L-DOPA on visual function of DM mice was investigated. […] Moreover, the severity of visual deficits progressed over time. The deficit in spatial frequency threshold of DM WT+Veh group (compared with CTRL WT+Veh group) worsened from 7.0% at 3 weeks after STZ to 12.3% at 6 weeks after STZ, whereas the reduction in contrast sensitivity deteriorated from 12.8% at 3 weeks after STZ to 43.6% at 6 weeks after STZ. […] The reduction in spatial frequency threshold of DM WT+L-DOPA group progressed from 2.4% at 3 weeks after STZ to 7.2% at 6 weeks after STZ, whereas the deficit in contrast sensitivity was only significant at 6 weeks after STZ, with an 18.0% reduction from CTRL animals. […] Furthermore, behavioral side effects such as dyskinesia with our current dosage of L-DOPA (10 mg/kg daily) in either CTRL or DM mice was not observed. A dosage was selected that was lower than the typical dosage used to induce dyskinesia (25 mg/kg) yet could still increase retinal DA levels.

[2] = test system: retinal function of DM mice
Description: Next, the postreceptoral function (i.e., b-wave) of these animals was examined.

[3] = test system: retinal function of DM mice; experiment: Light-adapted flicker ERG (cone pathway function); details: 5-week time point
Description: Because OKT responses were recorded under photopic conditions, isolated cone pathway function was examined by exposing light-adapted animals to flicker stimuli.

STZ-induced DM WT mice = experiment: Optokinetic tracking (OKT) visual function with chronic L-DOPA treatment in STZ-induced diabetic (DM) and CTRL WT mice; assay type: in vivo; details: for reduction in spatial frequency threshold: DM WT+L-DOPA group vs CTRL
Description: as §1

[4] = test system: Th, Drd1, Drd4 transcript levels; experiment: Real-time RT-PCR of retinal dopaminergic system-related genes; assay type: in vivo, mice
Description: Note that the y-axis refers to averaged 2−ΔCt values, with ΔCt calculated by subtracting cycle threshold (Ct) of 18S from Ct of gene of interest (GOI). The asterisk indicates significant difference between the respective treatment group and the CTRL WT group.
The specificity of our Th primers was confirmed, because a >4-fold reduction in Th expression in rTHKO mice (Student's t values: DM rTHKO+Veh=5.964 and DM rTHKO+L-DOPA=5.928, p<0.01; FIG. 7, Table 4) regardless of L-DOPA treatment was found.
Whether diabetes affected transcript levels of DA receptors, specifically D1 receptor (Drd1) and D4 receptor (Drd4), which are selectively involved in spatial frequency threshold and contrast sensitivity was investigated. No significant changes were found in the transcript levels of Drd1 and Drd4 (FIG. 7, Table 4).

DM rTHKO mice = experiment: OKT visual function with L-DOPA treatment in diabetic mice with loss of retinal DA (DM rTHKO); assay type: in vivo
Description: Because systemic injections of L-DOPA affect both brain and retinal dopaminergic systems, the role of retinal DA deficiency underlying visual deficits in early-stage DR was tested by assessing the effects of diabetes in mice with loss of retinal DA (rTHKO mice). It is hypothesized that reduced retinal DA content is a major contributing factor to the early visual deficits, so diabetes in rTHKO mice should not result in a further decline in their visual function.

retinal DA levels = experiment: Retinal dopamine content after daily intraperitoneal L-DOPA; assay type: in vivo, mice; details: daily intraperitoneal injections
Description: To validate that daily intraperitoneal injections of L-DOPA were able to increase retinal DA levels, retinal dopamine contents of the following four groups of animals were measured: CTRL WT+Veh, CTRL WT+L-DOPA, DM rTHKO+Veh, and DM rTHKO+L-DOPA. The retinal TH deficiency in the rTHKO mice greatly diminished DA levels compared with both CTRL groups (one-way ANOVA with ranks, H=12.092 with 3 degrees of freedom, p=0.007; Table 3).

In the case of `Cc1cccc(C(=O)NCN2CCN(c3ccccc3C#N)CC2)c1` [PD168077], the contrast sensitivity (8-week DM WT mice) is reported as “only improved contrast sensitivity”, the spatial frequency threshold (8-week DM WT mice) is reported as “failed to improve” and the contrast sensitivity (8-week DM WT mice; listed as D4 agonist) is reported as “significantly enhanced”.
In the case of `N[C@@H](Cc1ccc(O)c(O)c1)C(=O)O` [L-DOPA, (−)-L-α-amino-β-(3,4-dihydroxybenzene)propanoic acid], the “behavioral side effects such as dyskinesia” value [1] is reported as “not observed”, the b-wave amplitude ([2]; DM rTHKO mice (±L-DOPA) vs CTRL WT, dim and bright flash stimuli) is reported as “significantly reduced responses” and the b-wave implicit times ([2]; DM rTHKO+L-DOPA, dim and bright stimuli) is reported as “strong, although not statistically significant, trend for improvement”. For the same compound, the “flicker ERG responses (amplitude and implicit time)” value ([3]; DM WT+L-DOPA, light-adapted, 6 Hz flicker) was “levels similar to those of CTRL animals; also recorded: restore ERG responses of DM WT mice to those of CTRL mice”, the “cone pathway functions (flicker responses)” value ([3]; DM rTHKO+L-DOPA vs CTRL levels) was “partially restore” and the contrast sensitivity change (STZ-induced DM WT mice; DM WT and L-DOPA mice, 6 weeks after STZ) was “slight decrease”. For the same compound, the “onset of visual deficits (spatial frequency threshold)” value (STZ-induced DM WT mice; DM WT and L-DOPA mice, slower and less severe progression) was 4 weeks after STZ, the “onset and progression of visual dysfunction” value (STZ-induced DM WT mice; DM WT mice, chronic L-DOPA treatment) was “significantly delayed” and the “reduction in spatial frequency threshold” value (STZ-induced DM WT mice; 3 weeks after STZ, L-DOPA 10 mg/kg daily) was 2.4%. For the same compound, the “reduction in spatial frequency threshold” value (STZ-induced DM WT mice; 6 weeks after STZ, L-DOPA 10 mg/kg daily) was 7.2%, the “deficit in contrast sensitivity (reduction from CTRL animals)” value (STZ-induced DM WT mice; DM WT+L-DOPA group, 6 weeks after STZ, L-DOPA 10 mg/kg daily) was 18.0% and the “spatial frequency threshold or contrast sensitivity in CTRL mice” value (STZ-induced DM WT mice; non-diabetic CTRL mice treated with L-DOPA) was “did not cause significant changes”. For the same compound, the Drd4 transcript levels ([4]; DM WT+L-DOPA vs CTRL WT, p<0.05) was “significant downregulation; also recorded: downregulation of Drd4”, the Th transcript levels ([4]; L-DOPA treatment, retina, RT-PCR) was “trend for Th downregulation” and the “contrast sensitivities vs DM rTHKO+Veh” value (DM rTHKO mice) was “significantly better”. For the same compound, the “visual functions of DM rTHKO mice” value (DM rTHKO mice; for the duration of the study) was “significantly improved”, the “spatial frequency thresholds vs DM rTHKO+Veh” value (DM rTHKO mice; throughout the study duration, p<0.001) was “significantly higher” and the “DA levels of CTRL mice” value (retinal DA levels; CTRL WT+L-DOPA) was “did not significantly increase”. For the same compound, the “retina DA contents of rTHKO mice” value (retinal DA levels; DM rTHKO+L-DOPA) was “levels comparable to those of CTRL animals”.
For `Oc1cc2c(cc1O)C(c1ccccc1)CNCC2` (stereo not drawn) [SKF38393, 1-Phenyl-2,3,4,5-tetrahydro-(1H)-3-benzazepine-7,8-diol], the spatial frequency threshold (8-week DM WT mice) was “only improved spatial frequency threshold” and the spatial frequency threshold (8-week DM WT mice; listed as D1 receptor agonist) was “improved significantly”.
